Patent US20070082865A1, “Compositions and methods for treatment of airway hypersecretion” (Washington University, priority 2005, published 2007)

Columns and labels:
[1] = tested on: EGFR signaling (Akt activation); test: Western blot of lung lysates from SeV-inoculated mice treated with EKB-569; type: in vivo, C57BL/6J mice
Procedure: Blotting was with the indicated antibodies. Methodology is further described in Examples 1 and 2.
(§1) C57BL/6J and Balb/cJ mice were obtained from The Jackson Laboratory (Bar Harbor, Me.) and were maintained and monitored under pathogen-free conditions for study at 7 wk of age as described previously (Walter et al. (2001); Walter et al. (2002); Tyner et al. (2006) J. Clin. Invest. 116:309-321). SeV (Fushimi Strain 52) was grown in embryonated hen eggs and harvested to provide a viral stock solution such that 5000 EID50 (50% egg infectious dose) was equivalent to 2×10^5 PFU (plaque-forming units). This inoculum or an equivalent amount of UV-inactivated SeV was delivered intranasally in 30 μl PBS under ketamine/xylazine anesthesia. Under these conditions, viral tissue levels are maximal at days 3-5 after infection and viral clearance is complete by day 12 (Walter et al. (2001); Walter et al. (2002); Tyner et al. (2006) J. Clin. Invest. 116:309-321). […] For IL-13 blockade, mice were given subcutaneous injections of soluble murine IL-13Rα2 fused to Fc (slL Example 2: EGFR inhibition decreases aspects of epithelial remodeling 13Rα2-Fc; obtained from Deborah Donaldson, Wyeth Ayerst; 200 μg/mouse in PBS) or control Fc on days 12, 14, 17, and 20 post-infection (Donaldson (1998) J. Immunol. 161, 2317).

[2] = tested on: airway epithelium (ciliated, Clara and goblet cells); test: Quantitative morphometry of airway epithelial cell types (β-tubulin, CCSP, MUC5AC immunostaining) after SeV inoculation; type: in vivo, C57BL/6J mice
Description: Values represent mean+SEM, and a significant difference from SeV-UV control is indicated by (*). Methodology is further described in Example 2.
FIG. 24 is a bar graph showing quantitative analysis of β-tubulin (ciliated cells), CCSP (Clara cells), and MUC5AC (goblet cells) immunostaining in airways of mice infected with SeV and treated with slL-13 receptor antagonist (slL-13Ra2-Fc) or control IgG from on days 12, 14, 17, and 20 after inoculation. Bars=20 μm. A significant difference from corresponding IgG treatment is indicated by (*). Methodology is further described in Example 4.
as §1
Mouse lung was fixed by intraracheal instillation of 4% paraformaldehyde at 25-cm H2O pressure. After overnight fixation at 4° C., tissue was embedded in paraffin, and cut into 3-μm thick sections for hematoxylin/eosin or immunostaining.
For immunostaining, tissue sections were deparaffinized, rehydrated in graded alcohol and encircled with a hydrophobic film (ImmEdge PEN, Vector laboratories, Burlingame, Calif.). […] EGFR was detected using rabbit-antihuman EGFR antibody SC-03 from Santa Cruz Biotechnology (Santa Cruz, Calif.) directed against amino acid residues 1005-1016 that are identical to corresponding sequence in murine EGFR. Phosphorylated EGFR (p-EGFR) was detected using rabbit anti-phospho-EGFR (Tyr845) antibody #2231 from Cell Signaling Technology Inc. (Beverly, Mass.) directed against phosphorylated Tyr^845. […]

[3] = tested on: ciliated epithelial cells in mouse tracheal epithelial cell (mTEC) cultures; test: Ciliated cell survival in mTEC cultures (β-tubulin staining cells as % of total Hoechst-staining cells); type: cell-based; settings: treatment for 7 days
[4] = tested on: EGFR-dependent signals (p-EGFR, p-Akt, p-ERK1/2); test: Western blot of EGF-stimulated mTEC cultures with or without inhibitor; type: cell-based, mouse; settings: basic medium then EGF stimulation, inhibitor at maximal effective concentration
[5] = tested on: mouse tracheal epithelial cell (mTEC) cultures; test: Apoptosis in mTEC cultures (active caspase 3, TUNEL); type: cell-based; settings: mTEC with EGFR signaling blockade plus z-VAD-fmk (100 μM)
Procedure: Bar=20 μm. Methodology is further described in Example 3.
FIGS. 13A and 13B are bar graphs showing quantitative analysis of FIG. 12 for activate caspase-3 staining cells (expressed as % of total Hoechst staining cells) using treatment conditions from FIG. 12 as well as PD15305 plus zVAD-fmk (100 μM). Values represent mean+SEM, and a significant difference from vehicle alone is indicated by (*). Methodology is further described in Example 3.
AIRWAY EPITHELIAL CELL CULTURE AND TREATMENT.
IMMUNOCYTOCHEMISTRY. Cultured cells were washed twice with PBS at 4° C., fixed in 4% paraformaldehyde for 10 min. at 25° C., washed with PBS, and permeabilized with ethanol:acetic acid (2:1, vol/vol) for 5 min at −20° C. for TUNEL reaction or with 0.2% Triton-X for 5 min at 25° C. for immunostaining. Permeabilized cells were then washed with PBS and subjected to the TUNEL reaction (Intergen, Purchase, N.Y.) or blocked with 2% fish gel 1 h at 25° C. and incubated with rabbit anti-active caspase 3 (BD Biosciences, San Diego, Calif.), rabbit anti-EGFR (Santa Cruz Biotechnology, Santa Cruz, Calif.), rabbit anti-p-EGFR (Cell Signaling Technology, Inc., Beverly, Mass.), mouse anti-β-tubulin-IV or rabbit anti-β-tubulin (Sigma, St. Louis, Mo.) antibodies overnight at 4° C. Primary antibody binding was detected with goat anti-mouse or donkey anti-rabbit FITC or CY3 secondary antibody. […]

[6] = SeV, EGFR inhibitor daily post-infection days 10-21, read at day 21

## CCOc1cc2ncc(C#N)c(Nc3ccc(F)c(Cl)c3)c2cc1NC(=O)/C=C/CN(C)C [EKB-569]
[1]; 20 mg/kg by gavage daily, post-infection days 10-21, day 21 post-infection
  Akt activation in whole mouse lung: full inhibition
[1]; oral, each day from post-inoculation day 10 through day 21
  EGFR signaling in vivo: blocked EGFR signaling
[2]; [6]
  Clara cell decreases: complete blockade
  ciliated cell increases: complete blockade
  goblet cell metaplasia: partial but significant inhibition
[2]; post-inoculation day 21, vehicle 133±3
  total number of airway epithelial cells (cytokeratin-staining cells): 137±5 per mm basement membrane

## COc1cccc(-c2cc(=O)c3ccccc3o2)c1N [PD98059]
[3]
  loss of ciliated epithelial cells: only treatment with LY294002 caused a similar loss
[4]
  phosphorylation of ERK1/2: blocked

## COc1cc2ncnc(Nc3cccc(Br)c3)c2cc1OC [PD153035]
[3]
  loss of ciliated epithelial cells: dose-dependent loss of ciliated cells
[4]
  downstream EGFR signals: blocked all downstream signals

## z-Val-Ala-Asp fluoromethylketone [z-VAD-fmk]
[5]
  TUNEL-positive cells undergoing apoptosis: blocked
